Test results as given in ChEMBL document CHEMBL1201862, “PubChem BioAssay data set” (2004).
Calls of active or inactive are those of the source.

Key:
[1] = molecular target: T1, Low molecular weight phosphotyrosine protein phosphatase (Homo sapiens, UniProt P24666); experiment: inhibition of LMPTP-A enzymatic activity – biochemical, OMFP substrate, fluorescence intensity, set 2, dose response (AID 743307); type: functional
T1 sequence (P24666 whole entry): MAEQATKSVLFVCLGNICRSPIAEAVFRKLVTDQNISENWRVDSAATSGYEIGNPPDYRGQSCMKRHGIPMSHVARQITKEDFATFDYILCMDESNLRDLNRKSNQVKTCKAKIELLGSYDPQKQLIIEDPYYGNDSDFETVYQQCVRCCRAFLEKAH

[2] = molecular target: T1, Low molecular weight phosphotyrosine protein phosphatase; experiment: inhibition of human LMPTP enzyme activity – biochemical, absorbance, pNPP substrate, LMPTP-A isoform, set 2, orthogonal assay, dose response (AID 743308); type: functional
[3] = luciferase reporter signal suppression in cells – H4 neuroglioma cells, luminescence, dose response (AID 1990); type: functional, cell-based
[4] = Luminescence Cell-Based Dose Response HTS to Identify Inhibitors of 5'UTR Stem-Loop Driven Prion Protein mRNA Translation in H4 Neuroglioblastoma Cells. [Related pubchem assays: 1827 (Project Summary), 1813 (Primary HTS)]; type: functional
[5] = alpha-synuclein stem-loop luciferase translation blockers – H4 neuroglioma cells, luminescence, confirmation (AID 1988); type: functional, cell-based
[6] = HIV-1 Vif–A3G interaction blockers – biochemical, TR-FRET, GST-Vif 1-94, biotin-A3G peptide, dose response retest, primary screen (AID 1117319); type: functional;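 also: TR-FRET signal of purified GST-Vif binding a biotinylated A3G peptide; inhibitors lower the FRET signal by blocking Vif and A3G binding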
[7] = viability loss in Vero cells – cytotoxicity control for Vif-APOBEC3G degradation inhibitor project, dose response (AID 1117358); type: functional; settings: Vero
HEK293 [8] = experiment: cells; settings: Homo sapiens
HEK293 [9] = experiment: cells; settings: Homo sapiens; remark: listed apart in the source
[10] = rise of 2N DNA cells, HeLa – IC50, dose response (AID 1117349); type: functional, cell-based
[11] = CellTiter-Glo luminescence survival assay, SW480 colon tumor line, concentration-response curve, half-maximal inhibitory concentration (AID 1117338); type: functional
[12] = RKO cell viability reduction, dose response, CellTiter-Glo luminescence (AID 1117322); type: functional
[13] = cytotoxicity toward HCT116 cells – cell-based, CellTiter-Glo luminescence, IC50, dose response (AID 1117332); type: functional; settings: HCT-116
[14] = SNU-C1 cell viability reduction, dose response, CellTiter-Glo luminescence (AID 1117323); type: functional, cell-based
[15] = cytotoxicity toward Colo320 cells – cell-based, CellTiter-Glo luminescence, IC50, dose response (AID 1117334); type: functional; settings: COLO 320
[16] = rise of 4N DNA cells, HeLa – IC50, dose response (AID 1117351); type: functional, cell-based
[17] = cytotoxicity toward HT-29 cells – cell-based, CellTiter-Glo luminescence, IC50, dose response (AID 1117330); type: functional
[18] = Reduced DLD-1 viability, concentration-response, CellTiter-Glo luminescence (AID 1117352); type: functional
[19] = HCT116 cell viability decrease, GSK3B pretreatment – CellTiter-Glo, IC50, dose response (AID 1117339); type: functional; settings: HCT-116
Leucine aminopeptidase = molecular target: T2, Leucine aminopeptidase (Plasmodium falciparum 3D7, UniProt Q8IL11); experiment: P. falciparum M17LAP inhibitors, primary screen, biochemical, fluorogenic H-Leu-NHMec substrate, 1536-well (AID 1619); type: functional
T2 sequence (Q8IL11 whole entry): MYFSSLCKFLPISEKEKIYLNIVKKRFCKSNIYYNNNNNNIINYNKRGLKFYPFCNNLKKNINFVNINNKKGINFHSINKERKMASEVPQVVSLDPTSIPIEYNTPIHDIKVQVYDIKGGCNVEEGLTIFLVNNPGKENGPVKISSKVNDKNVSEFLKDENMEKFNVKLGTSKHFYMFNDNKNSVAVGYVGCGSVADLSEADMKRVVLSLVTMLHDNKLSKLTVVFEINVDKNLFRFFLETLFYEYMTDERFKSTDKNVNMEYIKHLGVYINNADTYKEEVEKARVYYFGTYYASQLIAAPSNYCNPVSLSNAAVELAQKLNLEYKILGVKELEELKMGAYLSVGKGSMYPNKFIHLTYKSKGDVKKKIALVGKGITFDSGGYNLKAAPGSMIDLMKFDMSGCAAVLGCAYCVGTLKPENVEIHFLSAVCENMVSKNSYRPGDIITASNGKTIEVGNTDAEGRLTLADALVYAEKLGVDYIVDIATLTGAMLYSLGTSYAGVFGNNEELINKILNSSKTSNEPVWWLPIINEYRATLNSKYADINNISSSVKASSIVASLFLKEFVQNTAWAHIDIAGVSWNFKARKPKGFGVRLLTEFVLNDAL

[20] = molecular target: Ubiquitin carboxyl-terminal hydrolase BAP1 (Homo sapiens, UniProt Q92560); experiment: inhibition of BAP1 ubiquitin hydrolase activity – biochemical, dose response (AID 714); type: functional
Estrogen receptor = Estrogen receptor (Homo sapiens, UniProt P03372);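 also: potency for inhibiting coactivator peptide recruitment to the receptor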
Estrogen receptor beta = Estrogen receptor beta (Homo sapiens, UniProt Q92731); experiment: blockers of SRC-3 recruitment to ERβ – biochemical, ELISA, streptavidin-HRP readout, orthogonal assay, confirmation (AID 1060)
[21] = molecular target: T3, Carboxy-terminal domain RNA polymerase II polypeptide A small phosphatase 1 (Homo sapiens, UniProt Q9GZU7); experiment: CTDSP1 inhibitors, concentration-response, biochemical, absorbance readout, ultra-high-throughput screen actives (AID 540297); type: functional
T3 sequence (Q9GZU7 whole entry): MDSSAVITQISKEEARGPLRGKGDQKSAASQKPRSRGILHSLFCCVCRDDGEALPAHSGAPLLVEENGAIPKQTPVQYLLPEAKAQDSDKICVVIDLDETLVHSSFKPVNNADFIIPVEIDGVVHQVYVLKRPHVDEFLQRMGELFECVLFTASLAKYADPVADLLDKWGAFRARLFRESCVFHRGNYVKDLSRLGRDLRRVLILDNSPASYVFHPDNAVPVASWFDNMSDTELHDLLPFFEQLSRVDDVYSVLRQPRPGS

[22] = P. falciparum Dd2 growth inhibitors, dose response, SYBR Green, cherry-picked samples (AID 1159567); type: functional, cell-based
[23] = toxicity to human hepatoma HepG2 cells – cell-based, cherry-picked samples, cytotoxicity control, dose response (AID 1159577); type: functional
[24] = molecular target: Sphingosine 1-phosphate receptor 2 (Homo sapiens, UniProt O95136); experiment: Dose Response Cell Based Assay for Antagonists of the S1P2 Receptor. [Related pubchem assays: 856, 736 ]; type: functional
INS1 = experiment: INS-1E survival protection against cytokine death – cell-based, luminescence, retest, dose response (AID 449756); type: functional; settings: Rattus norvegicus;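 also: cell death triggered by IL-1 beta plus TNF-alpha plus IFN-gamma mixture; protective hits raise ATP signal compared with cytokine alone wells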
[25] = molecular target: T4, COUP transcription factor 2 (Homo sapiens, UniProt P24468); experiment: Luminescence-based cell-based high throughput dose response assay to identify inhibitors of COUP-TFII (NR2F2).; type: functional;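 also: HEK293 cells transiently cotransfected with COUP-TFII expression vector and reporter; luciferase reporter luminescence driven by COUP-TFII from the pX2-168 reporter plasmid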
T4 sequence (P24468 whole entry): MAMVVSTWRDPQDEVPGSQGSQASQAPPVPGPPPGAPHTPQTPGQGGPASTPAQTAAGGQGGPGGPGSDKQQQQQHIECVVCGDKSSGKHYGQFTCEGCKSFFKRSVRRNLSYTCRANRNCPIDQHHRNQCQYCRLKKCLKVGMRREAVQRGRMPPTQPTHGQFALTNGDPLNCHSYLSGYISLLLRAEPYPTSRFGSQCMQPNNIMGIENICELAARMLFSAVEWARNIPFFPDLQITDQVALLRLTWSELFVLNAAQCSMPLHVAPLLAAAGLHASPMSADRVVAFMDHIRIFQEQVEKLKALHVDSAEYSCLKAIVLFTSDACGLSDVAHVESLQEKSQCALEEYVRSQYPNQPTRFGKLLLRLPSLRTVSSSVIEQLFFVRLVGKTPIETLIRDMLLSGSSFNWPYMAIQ

[26] = Dd2 parasite growth inhibition in erythrocytes – SYBR Green, dry powder samples, set 9, dose response (AID 1159568); type: functional, cell-based

Ubiquitin carboxyl-terminal hydrolase BAP1, sequence (Q92560 whole entry): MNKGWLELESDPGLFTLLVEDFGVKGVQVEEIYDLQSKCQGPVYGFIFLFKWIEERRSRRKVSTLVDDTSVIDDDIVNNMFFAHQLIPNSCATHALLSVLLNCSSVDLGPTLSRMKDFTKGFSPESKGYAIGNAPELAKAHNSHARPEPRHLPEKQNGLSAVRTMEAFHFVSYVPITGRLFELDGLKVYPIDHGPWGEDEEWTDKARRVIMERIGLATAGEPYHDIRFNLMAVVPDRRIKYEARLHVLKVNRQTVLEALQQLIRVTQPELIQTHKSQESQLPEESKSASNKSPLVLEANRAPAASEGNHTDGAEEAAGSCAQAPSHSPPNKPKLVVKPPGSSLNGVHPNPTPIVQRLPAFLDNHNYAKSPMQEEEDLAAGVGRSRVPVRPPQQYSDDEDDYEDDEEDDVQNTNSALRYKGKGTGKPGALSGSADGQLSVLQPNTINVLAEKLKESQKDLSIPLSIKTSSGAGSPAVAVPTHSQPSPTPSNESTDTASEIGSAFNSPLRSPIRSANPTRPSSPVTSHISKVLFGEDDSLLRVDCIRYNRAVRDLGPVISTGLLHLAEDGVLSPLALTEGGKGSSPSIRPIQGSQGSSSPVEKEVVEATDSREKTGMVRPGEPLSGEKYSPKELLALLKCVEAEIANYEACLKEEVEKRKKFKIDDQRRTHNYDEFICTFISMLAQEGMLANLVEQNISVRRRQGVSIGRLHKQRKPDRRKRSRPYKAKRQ
Estrogen receptor beta, sequence (Q92731 whole entry, the tested form may be a part): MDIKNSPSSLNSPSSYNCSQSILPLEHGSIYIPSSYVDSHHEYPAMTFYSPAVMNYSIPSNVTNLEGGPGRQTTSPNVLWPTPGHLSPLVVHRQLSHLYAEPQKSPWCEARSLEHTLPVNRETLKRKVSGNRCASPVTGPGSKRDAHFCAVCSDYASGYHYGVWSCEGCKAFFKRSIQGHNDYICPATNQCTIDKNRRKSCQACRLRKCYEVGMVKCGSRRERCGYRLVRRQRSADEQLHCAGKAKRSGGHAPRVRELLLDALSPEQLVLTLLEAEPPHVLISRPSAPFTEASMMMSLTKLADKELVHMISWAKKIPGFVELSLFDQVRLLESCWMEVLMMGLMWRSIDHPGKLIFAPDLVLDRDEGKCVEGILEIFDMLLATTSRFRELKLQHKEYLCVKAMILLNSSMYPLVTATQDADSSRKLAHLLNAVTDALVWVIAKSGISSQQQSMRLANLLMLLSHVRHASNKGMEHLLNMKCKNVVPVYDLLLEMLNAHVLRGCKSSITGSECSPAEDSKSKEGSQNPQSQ
Estrogen receptor, sequence (P03372 whole entry): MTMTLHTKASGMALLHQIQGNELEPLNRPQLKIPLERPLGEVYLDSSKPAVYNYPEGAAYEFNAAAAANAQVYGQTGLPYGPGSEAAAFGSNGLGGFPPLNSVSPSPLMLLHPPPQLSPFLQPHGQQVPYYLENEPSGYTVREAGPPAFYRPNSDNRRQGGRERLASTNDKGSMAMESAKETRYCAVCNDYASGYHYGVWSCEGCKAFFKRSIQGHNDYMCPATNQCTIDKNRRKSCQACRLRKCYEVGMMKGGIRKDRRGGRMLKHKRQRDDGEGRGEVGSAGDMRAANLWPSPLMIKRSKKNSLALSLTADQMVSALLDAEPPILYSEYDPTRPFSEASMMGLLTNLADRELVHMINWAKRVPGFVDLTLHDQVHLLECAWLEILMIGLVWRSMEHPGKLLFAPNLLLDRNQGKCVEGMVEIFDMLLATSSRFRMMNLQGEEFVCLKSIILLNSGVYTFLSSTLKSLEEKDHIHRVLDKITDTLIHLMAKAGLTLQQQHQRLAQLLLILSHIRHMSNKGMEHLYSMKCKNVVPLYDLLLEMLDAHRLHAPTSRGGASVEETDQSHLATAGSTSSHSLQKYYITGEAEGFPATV
Sphingosine 1-phosphate receptor 2, sequence (O95136 whole entry): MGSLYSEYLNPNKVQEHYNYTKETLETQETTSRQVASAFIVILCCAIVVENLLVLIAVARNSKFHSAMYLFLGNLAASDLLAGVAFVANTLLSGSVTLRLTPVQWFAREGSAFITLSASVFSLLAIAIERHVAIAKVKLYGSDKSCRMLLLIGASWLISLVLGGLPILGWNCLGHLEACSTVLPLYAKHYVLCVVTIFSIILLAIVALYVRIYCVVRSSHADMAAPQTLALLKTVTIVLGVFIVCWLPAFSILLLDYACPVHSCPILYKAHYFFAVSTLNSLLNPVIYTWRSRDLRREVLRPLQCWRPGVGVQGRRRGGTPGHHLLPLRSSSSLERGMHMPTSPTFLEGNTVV

**Q.** What does the source list for c1ccc2c(NCCCN3CCCCC3)cc(-c3ccncc3)nc2c1?
**A.** IC50 [1]: 2.48 µM (active); IC50 [2]: 6.49 µM (active)

**Q.** With CC(C)c1nc2sc3c(NCc4ccco4)ncnc3c2c2c1COC(C)(C)C2 as the compound, how does the EC50 [3] read?
**A.** The EC50 was 19.2 µM (active).

**Q.** What about the EC50 [4] of the same compound?
**A.** The EC50 was > 120 µM (not active).

**Q.** What about the EC50 [5] of the same compound?
**A.** The EC50 was > 120 µM (not active).

**Q.** And the IC50 [6]?
**A.** Its IC50 is > 50 µM (active).

**Q.** And the CC50 [7]?
**A.** The CC50 was > 40 µM (active).

**Q.** And the EC50 (HEK293 [8])?
**A.** The EC50 was > 59.6 µM (inactive).

**Q.** And the EC50 (HEK293 [9])?
**A.** Its EC50 is > 59.6 µM (inactive).

**Q.** What does the source list for Cc1c(C)c2c(c(C)c1O)CCC(C)(COc1ccc(CC3SC(=O)NC3=O)cc1)O2 (stereo not given) [TROGLITAZONE]?
**A.** IC50 [10]: > 10 µM (inactive); IC50 [11]: 5.59 µM (inactive); IC50 [12]: 7.76 µM (inactive); IC50 [13]: 1.4 µM (active); IC50 [14]: > 20 µM (inactive); IC50 [15]: 9.49 µM (inactive); IC50 [16]: > 10 µM (inactive); IC50 [17]: > 20 µM (inactive); IC50 [18]: 12.3 µM (inactive); IC50 [19]: 1.3 µM (active)

**Q.** With CCOC(=O)c1ccc(NC(=O)CSc2nc(C)cc(=O)[nH]2)cc1 as the compound, how does the IC50 (Leucine aminopeptidase) read?
**A.** The IC50 was 11.8 µM (active).

**Q.** And the IC50 [20]?
**A.** The IC50 was 23.3 µM (active).

**Q.** What about the IC50 (Estrogen receptor) of the same compound?
**A.** The IC50 was 3.06 µM (active).

**Q.** What about the IC50 (Estrogen receptor beta) of the same compound?
**A.** Its IC50 is < 0.023 µM (not active).

**Q.** What about the IC50 [21] of the same compound?
**A.** Its IC50 is 2.67 µM (active).

**Q.** Which results are given for Cc1ccccc1S(=O)(=O)N1CC(=O)N2[C@H](C1)[C@@H](c1ccc(C#CCC3CCCC3)cc1)[C@@H]2CO?
**A.** AC50 [22]: 3.64 µM (active); AC50 [23]: > 42 µM (inactive)

**Q.** With CCOC(=O)N1CCN(C(=O)CSCC(=O)Nc2nc(-c3ccc(-c4ccccc4)cc3)cs2)CC1 as the compound, how does the IC50 [24] read?
**A.** Its IC50 is 2.47 µM (active).

**Q.** What about the AC50 (INS1) of the same compound?
**A.** The AC50 was 4.63 µM (active).

**Q.** And the IC50 [25]?
**A.** Its IC50 is 5.66 µM (active).

**Q.** With COc1ccc2c3c(n(C)c2c1)[C@@H](CO)N(Cc1ccc2c(c1)OCO2)CC31CN(C(=O)c2ccc3c(c2)OCO3)C1 as the compound, how does the AC50 [26] read?
**A.** The AC50 was 1.21 µM (active).
